Test results reported in article PMC9967645, “OAT3 Participates in Drug–Drug Interaction between Bentysrepinine and Entecavir through Interactions with M8—A Metabolite of Bentysrepinine—In Rats and Humans In Vitro” (Molecules, 2023).
Several values for one entry are separate records, joined by “and”; a condition that tells them apart may be missing. Equal values may be shown once. Read-outs that look alike come from different tables or passages of the source. Each block holds one compound with its values, some of them ahead of it.

Legend:
rat kidney slices = assay: In vitro uptake assay in kidney slices; format: in vitro ADME; conditions: M8 5.0 µM; for inhibition of the uptake of M8 in kidney slices: PCG 0.2 and 0.5 mM, PRO 0.1 mM, PAH 0.2 and 0.5 mM, TEA 0.2 mM, 10 min, ETV 10 µM
Protocol: The renal cortex was cut into 300 µm slices with a ZQP-86 tissue slicer (Shanghai Zhisun Equipment Co., Ltd., Shanghai, China; surface area 0.15 cm^2). […] Next, the kidney slices were prepared as previously described. Two slices per well were placed into 37 °C buffer filled with oxygen for pre-incubation for 3 min and then gently moved into a 24-well cell culture plate containing 1 mL oxygenated buffer at 4 °C or 37 °C. The uptakes of ETV (10 µM), Y101 (2.0 µM), M8 (5.0 µM) and M9 (1.0 µM) were measured at 5, 10, 15 and 30 min after the treatment, respectively. […] Following incubation at the designated time, kidney slices were collected, rinsed with ice-cold buffer three times, and dried on filter paper. After weighing and homogenization (IKA-T 10 homogenizer; IKA, Staufen, Germany), the concentrations of Y101, M8, M9 and ETV of kidney slice homogenates were determined as in the description below.
(§1) Biological samples were prepared as previously described. Aliquots (50 µL) of urine, plasma, kidney homogenates, or cell lysates were individually mixed with 150 µL methanol and 50 µL working solution of internal standard (acetaminophen or bestatin), followed by vortexing for 1 min and centrifuging at 13,800 g for 10 min. […] The resulting supernatant (1 µL) was subjected to LC-MS/MS for the assessment of Y101, M8, M9 and ETV, respectively. […] The concentrations of ETV, Y101, M8 and M9 were determined by an AB QTRAP 5500 LC–MS/MS System (Foster City, CA, USA) as previously described. Chromatographic separation was achieved on an Infinitylab Poroshell 120 EC-C18 (50 mm × 2.1 mm, 2.7 µm, Agilent Technology Inc., CA, USA) at 40 °C. The mobile phase consisted of formic acid-acetonitrile (0.05:100, v/v) and a mixture of 1 mmol-ammonium acetate-acetonitrile-formic acid (95:5:0.05, v/v/v) at a flow rate of 0.3 mL/min. […] Analyst1.5.2 software was used for data processing and analysis.

hOAT3 = target: T1, hOAT3 (Homo sapiens, UniProt Q8TCC7); assay: In vitro uptake assay in hOAT3-HEK293 cells
T1 sequence (Q8TCC7 1-542): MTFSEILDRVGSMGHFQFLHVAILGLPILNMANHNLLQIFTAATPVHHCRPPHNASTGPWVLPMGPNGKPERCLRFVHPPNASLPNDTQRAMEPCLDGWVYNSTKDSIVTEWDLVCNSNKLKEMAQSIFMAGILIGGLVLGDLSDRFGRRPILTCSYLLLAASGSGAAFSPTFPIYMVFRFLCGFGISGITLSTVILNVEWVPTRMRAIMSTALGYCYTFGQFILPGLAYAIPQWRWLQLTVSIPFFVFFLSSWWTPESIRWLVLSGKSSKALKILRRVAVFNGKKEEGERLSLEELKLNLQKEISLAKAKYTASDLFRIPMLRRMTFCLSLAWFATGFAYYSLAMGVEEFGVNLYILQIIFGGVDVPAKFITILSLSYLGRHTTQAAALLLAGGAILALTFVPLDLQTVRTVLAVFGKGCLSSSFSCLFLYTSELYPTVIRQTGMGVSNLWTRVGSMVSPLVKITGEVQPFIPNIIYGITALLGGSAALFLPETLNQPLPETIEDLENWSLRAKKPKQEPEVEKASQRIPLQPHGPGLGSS
Protocol: The hOAT1-HEK293, hOAT3-HEK293 and mock cells were cultured in Dulbecco modified Eagle medium (DMEM) containing 10% fetal bovine serum (FBS) and 1% penicillin/streptomycin in an atmosphere of 5% CO2 air at 37 °C. The HEK293 cells were plated on 24-well plates at a density of 5 × 10^5 cells/well. […] Uptake assay was initiated by adding 1 mL of the transporter buffer containing Y101, M8, ETV or probe substrate. Following incubation with gentle shaking, the uptake was terminated at designated time by removing the transporter buffer and washing cells three times with 1 mL of ice-cold HBSS. Next, substrates of Y101, M8, ETV, PAH and ES in cell monolayer were released by lysing the cells with 0.3 mL of 0.1% Triton X-100 for 2 h and determined by liquid chromatography–tandem mass spectrometry (LC–MS/MS). In the time-course uptake assay, Y101 (2.0 µM) and M8 (10 µM) in the presence or absence of PRO (100 µM) were measured in hOAT1-HEK293, hOAT3-HEK293 and mock cells. The concentration-dependent uptake of M8 was determined in hOAT3-HEK293 cells, and incubation time (5 min) was optimized. The uptake of M8 (10 µM) with or without ETV was examined in hOAT3-HEK293 cells. The uptake of ETV (10 µM) with or without Y101 or M8 was also measured in hOAT1-HEK293 and hOAT3-HEK293 cells, respectively. Furthermore, PAH and ES at concentrations of 10 µM were used as positive control in hOAT1-HEK293 and hOAT3-HEK293 cells, respectively. Protein concentrations were measured by the bicinchoninic acid procedure (Solarbio, Beijing, China) using bovine serum albumin as the standard.
as §1

[1] = Pharmacokinetic DDI study in rats, oral Y101 and/or ETV; format: in vivo, Sprague–Dawley (SD) rats; conditions: Sprague-Dawley, rat, plasma, n = 4
Protocol: (§2) Additionally, DDI between Y101 and ETV was investigated by monitoring time-course plasma Y101 in rats with surgery as described above. Animals were randomly placed into three groups (n = 4): (1) Y101 alone (25 mg/kg for intravenous treatment and 60 mg/kg for oral administration); (2) ETV (0.06 mg/kg); and (3) Y101 (25 mg/kg for intravenous treatment and 60 mg/kg for oral administration) + ETV (0.06 mg/kg). ETV was dissolved in saline at concentration of 12 µg/mL. Rats received an oral or intravenous dose of Y101 and/or ETV at volume of 5 mL/kg. The doses used in in vivo pharmacokinetic studies were selected in accordance with therapeutic doses of Y101 and ETV commonly used clinically and in previous studies.
(§3) Following administration, serial blood samples were collected through jugular vein pre-dose (0 h) and post-dose at 0.033, 0.083, 0.25, 0.5, 1, 1.5, 2, 3, 4, 6, 9, 12, 24 and 30 h in heparinized Eppendorf tubes. The resulting samples were centrifuged at 13,800× g at 4 °C for 5 min to obtain plasma. All plasma samples were stored at −70 °C until analysis.
(§4) Biological samples were prepared as previously described.
(§5) Non-compartmental analysis with Phenix WinNonlin (version 8.1; Pharsight, Certara Corp, Princeton, NJ) was used to calculate the main pharmacokinetic parameters of ETV, Y101, M8 and M9 for individual rats. The observed values were reported for maximum concentration (Cmax) and time to reach maximum concentration (Tmax), while the area under the plasma concentration–time curve (AUC) was calculated via the default trapezoidal-up, log-trapezoidal-down approach.

[2] = Pharmacokinetic DDI study in rats, intravenous Y101 and/or ETV; format: in vivo, Sprague–Dawley (SD) rats; conditions: Sprague-Dawley, rat, plasma, n = 4
Protocol: as §2, §3, §4, §5

[3] = Renal excretion study in rats (cumulative urinary excretion, renal clearance); format: in vivo, Sprague–Dawley (SD) rats; conditions: for CL renal: Sprague-Dawley, rat, urine, iv, read-out: CLR (renal clearance) (converted)
Protocol: To investigate the effects of PRO on the renal excretion of Y101 and its metabolites, rats received an intravenous dose of Y101 (25 mg/kg) or Y101 + PRO (25 mg/kg for Y101 and 100 mg/kg for PRO) via the caudal vein. In order to verify the DDI between Y101 and ETV in renal excretion, rats received an intravenous dose of Y101 (25 mg/kg) and/or ETV (0.06 mg/kg) by caudal vein.
[…] Subsequently, urine samples were stored at −70 °C until analysis. The cumulative urinary excretion and renal clearance (CLR) were calculated as previously described.
as §4

[4] = Pharmacokinetic study in rats, intravenous Y101 with or without PRO; format: in vivo, Sprague–Dawley (SD) rats; conditions: for Tmax / half-life / AUC(0-inf) / AUC(0-t) / Cmax: male, Sprague-Dawley, rat, plasma, iv, 25 mg/kg, n = 3
Protocol: The effect of PRO on the pharmacokinetics of Y101 was studied in rats. Male rats surgically prepared with indwelling jugular cannula were randomly divided into two groups (n = 3): (1) Y101 alone (25 mg/kg) as a control and (2) Y101 + PRO (25 mg/kg for Y101 and 100 mg/kg for PRO) as an experimental group. The intravenous dose of Y101 was prepared as previously described. Both Y101 and PRO were injected by caudal vein to rats at volume of 5 mL/kg.
as §3, §4, §5

[5] = oral Y101 60 mg/kg + ETV 0.06 mg/kg
[6] = i.v. Y101 25 mg/kg + ETV 0.06 mg/kg
[7] = i.v. Y101 25 mg/kg + PRO 100 mg/kg vs Y101 alone
[8] = i.v. Y101 25 mg/kg + PRO 100 mg/kg

inhibition of the uptake of ES in hOAT3-HEK293 cells (hOAT3; ES 10 µM, PRO 100 µM, 10 min): inhibited in the presence of PRO
inhibition of the uptake of M8 in hOAT3-HEK293 cells (hOAT3; M8 10 µM, PRO 100 µM, ETV 10 µM): inhibited by the presence of PRO
Compound: CCCN(CCC)S(=O)(=O)c1ccc(C(=O)O)cc1 [PRO, probenecid, reference compound]
inhibition of the uptake of M8 in kidney slices (rat kidney slices): inhibited significantly

Compound: CC1(C)S[C@@H]2[C@H](NC(=O)Cc3ccccc3)C(=O)N2[C@H]1C(=O)O [PCG, benzylpenicillin]
inhibition of the uptake of M8 in kidney slices (rat kidney slices): inhibited significantly

Compound: C[C@]12CC[C@@H]3c4ccc(OS(=O)(=O)[O-])cc4CC[C@H]3[C@@H]1CCC2=O.[Na+] [ES, Estrone 3-sulfate sodium salt, reference compound]
substrate of hOAT3 (uptake in hOAT3-HEK293 vs mock-HEK293 cells) (hOAT3; Y101 2.0 µM, M8 10 µM, ES 10 µM): selectively accumulated

AUC(0-inf) [1, 5]: 657 ng·h/mL
AUC(0-t) [1, 5]: 645 ng·h/mL
Cmax [1, 5]: 127 ng/mL
AUC(0-inf) ([1]; oral Y101 60 mg/kg alone): 645 ng·h/mL
AUC(0-t) ([1]; oral Y101 60 mg/kg alone): 641 ng·h/mL
Cmax ([1]; oral Y101 60 mg/kg alone): 144 ng/mL
Tmax [1, 5]: 2.5 h
half-life [1, 5]: 1.46 h
Tmax ([1]; oral Y101 60 mg/kg alone): 3 h
half-life ([1]; oral Y101 60 mg/kg alone): 1.16 h
AUC(0-inf) [2, 6]: 471 ng·h/mL
AUC(0-t) [2, 6]: 464 ng·h/mL
Cmax [2, 6]: 171 ng/mL
AUC(0-inf) ([2]; i.v. Y101 25 mg/kg alone): 553 ng·h/mL
AUC(0-t) ([2]; i.v. Y101 25 mg/kg alone): 547 ng·h/mL
Cmax ([2]; i.v. Y101 25 mg/kg alone): 134 ng/mL
Tmax [2, 6]: 1.25 h
half-life [2, 6]: 1.8 h
Tmax ([2]; i.v. Y101 25 mg/kg alone): 1.13 h
half-life ([2]; i.v. Y101 25 mg/kg alone): 1.14 h
CL renal ([3]; 25 mg/kg, i.v. Y101 25 mg/kg + PRO 100 mg/kg): 2 mL/min/kg
CL renal ([3]; 25 mg/kg, i.v. Y101 25 mg/kg alone (Table 1, control of PRO study)): 2.08 mL/min/kg
CL renal ([3]; 25 mg/kg, i.v. Y101 25 mg/kg alone (Table 2, control of ETV study)): 2.47 mL/min/kg
CL renal [3, 6]: 2.67 mL/min/kg
cumulative excretion in the urine ([3]; i.v. Y101 25 mg/kg + ETV 0.06 mg/kg, at 30 h post-dose): 1.50 ± 0.232 % of the dose
cumulative urinary excretion ([3]; i.v. Y101 25 mg/kg + PRO 100 mg/kg, 0 to 48 h): 1.36 ± 0.106%
elevation in AUC value on co-administration of PRO [4, 7]: 56%
increase in Cmax value on co-administration of PRO [4, 7]: 1.4 fold
Tmax [4, 8]: 1.33 h
half-life [4, 8]: 1.32 h
AUC(0-inf) [4, 8]: 536 ng·h/mL
AUC(0-t) [4, 8]: 527 ng·h/mL
Cmax [4, 8]: 219 ng/mL
AUC(0-inf) ([4]; i.v. Y101 25 mg/kg alone): 343 ng·h/mL
AUC(0-t) ([4]; i.v. Y101 25 mg/kg alone): 335 ng·h/mL
Cmax ([4]; i.v. Y101 25 mg/kg alone): 156 ng/mL
Tmax ([4]; i.v. Y101 25 mg/kg alone): 1.17 h
half-life ([4]; i.v. Y101 25 mg/kg alone): 1.01 h
Compound: C[N+](C)([O-])CCOc1ccc(CC(NC(=O)c2ccccc2)C(=O)O)cc1 (stereo not drawn) [M9]
cumulative urinary excretion ([3]; i.v. Y101 25 mg/kg alone, at 48 h post-dose): 1.42 ± 0.04 % of the dose and 1.42 % of the dose
time and temperature dependence of uptake in kidney slices (rat kidney slices; 37 °C vs 4 °C, Y101 2.0 µM, M9 1.0 µM, 5 to 30 min): did not show significant time or temperature dependence
